Test results from patent publication US20230183239A1, “ECTONUCLEOTIDE PYROPHOSPHATASE-PHOSPHODIESTERASE 1 (ENPP-1) INHIBITORS AND USES THEREOF” (AbbVie Inc., priority 2017, published 2023).

Columns and labels:
Format in all cases: biochemical
[1] = target: T1, ENPP1 (Homo sapiens, UniProt P22413); test: Substrate selectivity ratio, inhibition of cGAMP hydrolysis versus ATP hydrolysis; conditions: ratio Ki AMP-pNP / Ki cGAMP
T1 sequence (P22413 1-925): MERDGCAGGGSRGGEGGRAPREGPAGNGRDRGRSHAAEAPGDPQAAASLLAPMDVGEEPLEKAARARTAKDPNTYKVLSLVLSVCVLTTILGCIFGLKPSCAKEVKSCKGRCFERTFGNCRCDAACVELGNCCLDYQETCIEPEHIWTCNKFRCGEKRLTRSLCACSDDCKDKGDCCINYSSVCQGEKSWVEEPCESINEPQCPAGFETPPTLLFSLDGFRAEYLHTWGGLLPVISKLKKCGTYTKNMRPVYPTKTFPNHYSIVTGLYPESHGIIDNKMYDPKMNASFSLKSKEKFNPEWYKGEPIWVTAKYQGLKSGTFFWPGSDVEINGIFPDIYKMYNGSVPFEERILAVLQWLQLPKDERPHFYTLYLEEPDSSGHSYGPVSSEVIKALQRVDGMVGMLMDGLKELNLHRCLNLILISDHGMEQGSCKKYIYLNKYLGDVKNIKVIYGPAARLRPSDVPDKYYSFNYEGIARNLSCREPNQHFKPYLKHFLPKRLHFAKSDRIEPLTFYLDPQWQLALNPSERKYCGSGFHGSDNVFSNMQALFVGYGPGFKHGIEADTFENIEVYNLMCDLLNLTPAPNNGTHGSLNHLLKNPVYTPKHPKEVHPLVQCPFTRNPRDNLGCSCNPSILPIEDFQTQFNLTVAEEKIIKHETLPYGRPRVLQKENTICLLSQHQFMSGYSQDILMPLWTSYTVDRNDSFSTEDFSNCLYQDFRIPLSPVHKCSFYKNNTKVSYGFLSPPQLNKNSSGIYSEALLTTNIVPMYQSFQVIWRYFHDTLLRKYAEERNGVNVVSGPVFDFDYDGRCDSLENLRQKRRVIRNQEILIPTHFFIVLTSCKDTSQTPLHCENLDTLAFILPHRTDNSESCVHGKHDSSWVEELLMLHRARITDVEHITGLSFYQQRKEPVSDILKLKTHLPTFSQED
Method: The selectivity ratios for inhibition of cGAMP hydrolysis versus ATP hydrolysis were then calculated as follows: […]

[2] = target: T1, ENPP1; test: ENPP1 enzyme assay with AMP-pNP substrate (hydrolysis of ATP analog); conditions: AMP-pNP substrate (ATP analog); Ki from IC50 by Cheng-Prusoff; read-out: ENPP1 Inhibition _AMP-pNP: Ki
Method: The ENPP1 assay with AMP-pNP substrate is conducted in a buffer containing 50 mM Tris-HCl (pH 8.5)/ 250 mM NaCl/0.5 mM CaCl2/1 µM ZnCl2/0.1% DMSO. Inhibitors are added at final concentrations ranging between 10 µM and 30 pM depending on the compound. Duplicate wells are run at each inhibitor concentration. The final assay volume is 40 µL and human recombinant ENPP1 is present at 60 ng/well. The assay is initiated by the addition of substrate (300 µM AMP-pNP final concentration), and incubated for 20 minutes at 37° C. […] Each assay plate also includes wells with no enzyme added (MIN OD) and wells with no inhibitor added (MAX OD). The percent inhibition of ENPP1 for each sample is then calculated as: […]
IC50 values of compounds were calculated by entering the percent inhibition values into a sigmoidal variable slope nonlinear regression model in GraphPad Prism® software.

[3] = target: T1, ENPP1; test: Indirect quantitation of 2',3'-cGAMP hydrolysis (AMP-Glo Assay kit); conditions: cGAMP substrate; Ki from IC50 by Cheng-Prusoff; read-out: ENPP1 Inhibition -cGAMP: Ki

Row | Structure (SMILES) | Substrate Selectivity: Ki_AMP-pNP/Ki_cGAMP [1] | Ki [2] [nM] | Ki [3] [nM]
1 | COc1cc2nccc(-n3ccc4cc(NS(N)(=O)=O)ccc43)c2cc1OC [Example 313, N-(1-(6,7-dimethoxyquinolin-4-yl)-1H-indol-5-yl)sulfamide] | >38.8 | > 1000 | < 100
2 | COc1ccc2c(-c3ccc(CN(C)S(N)(=O)=O)cc3)ccnc2c1 [Example 368, N-(4-(7-methoxyquinolin-4-yl)benzyl)-N-methyl sulfamide] | >7 | 100 to 1000 | < 100
3 | COc1cc2nccc(N3CC4CN(S(N)(=O)=O)CC4C3)c2cc1OC (stereo not drawn) [Example 202, 5-(6,7-dimethoxyquinolin-4-yl)hexahydropyrrolo[3,4-c]pyrrole-2(1H)-sulfonamide] | 10.5 | 100 to 1000 | < 100
4 | COc1ccc2ncc(C#N)c(-c3ccc(CNS(N)(=O)=O)cc3)c2c1 [Example 240, N-(4-(3-cyano-6-methoxyquinolin-4-yl)benzyl)sulfamide] | >81.3 | > 1000 | < 100
5 | COc1cc2ncc(F)c(-c3ccc(CNS(N)(=O)=O)cc3)c2cc1OC [Example 67, N-(4-(3-fluoro-6,7-dimethoxyquinolin-4-yl)benzyl)sulfamide] | 67.2 | < 100 | < 100
6 | COc1cc2nccc(NCc3ccc(NS(N)(=O)=O)cc3)c2cc1OC [Example 180, N-(4-(((6,7-dimethoxyquinolin-4-yl)amino)methyl)phenyl)sulfamide] | > 11.9 | > 1000 | 100 to 1000
7 | COc1ccc2c(Oc3ccc(S(N)(=O)=O)cc3)c(C)cnc2c1 [Example 359, 4-((7-methoxy-3-methylquinolin-4-yl)oxy)benzene sulfonamide] | 54 | 100 to 1000 | < 100
8 | COc1ccc2c(Oc3ccc(NS(N)(=O)=O)cc3C#N)ccnc2c1 [Example 353] | >74 | > 1000 | 100 to 1000
9 | COc1cc2ncnc(NCCc3ccc(NS(N)(=O)=O)cc3)c2cc1OC [Example 156, N-(4-(2-((6,7-dimethoxyquinazolin-4-yl)amino)ethyl)phenyl) sulfamide] | 23.3 | 100 to 1000 | < 100
10 | COc1ccc2c(Oc3ccc(NS(N)(=O)=O)cc3)c(C(F)(F)F)cnc2c1 [Example 407, N-(4-((7-methoxy-3-(trifluoromethyl)quinolin-4-yl)oxy)phenyl)sulfamide] | >14 | > 1000 | 100 to 1000
11 | COc1cc2ncnc(N3CCC(CCC(=O)NO)CC3)c2cc1OC [Example 159, 3-(1-(6,7-dimethoxyquinazolin-4-yl)piperidin-4-yl)-N-hydroxypropanamide] | 54.8 | < 100 | < 100
12 | COc1cc2ncc(C#N)c(N3CCC4(CC3)CCN(S(N)(=O)=O)C4)c2cc1OC [Example 64, 8-(3-cyano-6,7-dimethoxyquinolin-4-yl)-2,8-diazaspiro [4.5] decane-2-sulfonamide] | 11.9 | < 100 | < 100
13 | COc1cc2nccc(Nc3ccc(CC(=O)NO)cc3)c2cc1OC [Example 207, 2-(4-((6,7-dimethoxyquinolin-4-yl)amino)phenyl)-N-hydroxyacetamide] | 36.8 | < 100 | < 100
14 | COc1ccc2ncnc(-c3ccc(CNS(N)(=O)=O)cc3)c2c1 [Example 264, N-(4-(6-methoxyquinazolin-4-yl)benzyl)sulfamide] | >28.0 | > 1000 | 100 to 1000
15 | COc1cc2ncc(C#N)c(-c3ccc(S(N)(=O)=O)cc3)c2cc1OC [Example 136, 4-(3-cyano-6,7-dimethoxyquinolin-4-yl)benzenesulfonamide] | >461 | > 1000 | < 100
16 | COc1cc2ncnc(NC(C)c3ccc(NS(N)(=O)=O)cc3)c2cc1OC (stereo in doubt) [Example 254, (S)-N-(4-(1-((6,7-dimethoxyquinazolin-4-yl)amino)ethyl)phenyl)sulfamide] | > 31.4 | > 1000 | < 100
17 | COc1cc2ncnc(-c3ccc4c(c3)CC(NS(N)(=O)=O)C4)c2cc1OC (stereo not drawn) [Example 122, N-(5-(6,7-dimethoxyquinazolin-4-yl)-2,3-dihydro-1H-inden-2-yl)sulfamide] | 21.9 | 100 to 1000 | < 100
18 | COc1ccc2c(-c3ccc(CN(C4CC4)S(N)(=O)=O)cc3)ccnc2c1 [Example 289, N-cyclopropyl-N-(4-(7-methoxyquinolin-4-yl)benzyl)sulfamide] | > 626 | > 1000 | < 100
19 | COc1cc2ncnc(NC(C)c3ccc(NS(N)(=O)=O)cc3)c2cc1OC (stereo not drawn) [Example 140, N-(4-(1-((6,7-dimethoxyquinazolin-4-yl)amino)ethyl)phenyl) sulfamide] | 25.1 | 100 to 1000 | < 100
20 | COc1cc2ncn(-c3ccc(CCNS(N)(=O)=O)cc3)c2cc1OC [Example 217, N-(4-(5,6-dimethoxy-1H-benzo[d]imidazol-1-yl)phenethyl)sulfamide] | > 18.2 | > 1000 | 100 to 1000
21 | COc1cc2nccc(NCc3ccc(S(N)(=O)=O)cc3)c2cc1F [Example 56, 4-(((6-fluoro-7-methoxyquinolin-4-,yl)amino)methyl)benzenesulfonamide] | 6.3 | < 100 | < 100
22 | COc1ccc2c(N3CCC4(CCNC4)CC3)c(C#N)cnc2c1 [Example 275, 7-methoxy-4-(2,8-diazaspiro[4.5]decan-8-yl)quinoline-3-carbonitrile] | >7.7 | > 1000 | 100 to 1000
23 | NS(=O)(=O)N1CCC2(CCN(c3ncnc4ccccc34)CC2)C1 [Example 158, 8-(quinazolin-4-yl)-2,8-diazaspiro [4.5] decane-2-sulfonamide] | 16.3 | 100 to 1000 | < 100
24 | COc1cc2nccc(Oc3ccc(NS(N)(=O)=O)cc3F)c2cc1OC [Example 201, N-(4-((6,7-dimethoxyquinolin-4-yl)oxy)-3-fluorophenyl)sulfamide] | > 19.9 | 100 to 1000 | < 100
25 | COc1cc2c(N3CCC(CCNS(N)(=O)=O)CC3)ncnc2cn1 [Example 189, N-(2-(1-(6-methoxypyrido[3,4-d]pyrimidin-4-yl)piperidin-4-yl)ethyl)sulfamide] | > 27.0 | > 1000 | 100 to 1000
26 | COc1ccc2c(-n3cnc(CNS(N)(=O)=O)c3)ccnc2c1 [Example 385, N-((1-(7-methoxyquinolin-4-yl)-1H-imidazol-4-yl)methyl)sulfamide] | >44 | > 1000 | < 100
27 | COc1cc2ncc(C#N)c(-c3ccc(CN(C4CC4)S(N)(=O)=O)cc3)c2cc1OC [Example 290, N-(4-(3-cyano-6,7-dimethoxyquinolin-4-yl)benzyl)-N-cyclopropylsulfamide] | 17.1 | 100 to 1000 | < 100
28 | COc1cc2ncc(C#N)c(-c3ccc4c(c3)CN(S(N)(=O)=O)CC4)c2cc1F [Example 316, 7-(3-cyano-6-fluoro-7-methoxyquinolin-4-yl)-3,4-dihydroisoquinoline-2(1H)-sulfonamide] | >533 | > 1000 | < 100
